{"source": "ChEMBL document CHEMBL4145521", "about": "“Regioselective synthesis of 3,4-diaryl-5-unsubstituted isoxazoles, analogues of natural cytostatic combretastatin A4” (Eur J Med Chem, 2018)", "assay_type_in_all_cases": "functional", "key": {"SF-268 [1]": {"tested_on": "SF-268", "test": "Cytotoxicity against human SF268 cells assessed as cell growth at 1 uM incubated for 48 hrs by sulforhodamine B assay relative to control", "conditions": "SF-268, 48 h, read-out: Activity"}, "ACHN": {"tested_on": "ACHN", "test": "Cytotoxicity against human ACHN cells assessed as cell growth at 1 uM incubated for 48 hrs by sulforhodamine B assay relative to control", "conditions": "read-out: Activity"}, "A549": {"tested_on": "A549", "test": "Cytotoxicity against human A549/ATCC cells assessed as cell growth at 0.1 uM incubated for 48 hrs by sulforhodamine B assay relative to control", "conditions": "A549, 48 h, read-out: Activity"}, "UO-31 [2]": {"tested_on": "UO-31", "test": "Cytotoxicity against human UO31 cells assessed as cell growth at 0.01 uM incubated for 48 hrs by sulforhodamine B assay relative to control", "conditions": "UO-31, 48 h, read-out: Activity"}, "SF-268 [3]": {"tested_on": "SF-268", "test": "Cytotoxicity against human SF268 cells assessed as cell growth at 10 uM incubated for 48 hrs by sulforhodamine B assay relative to control", "conditions": "SF-268, 48 h, read-out: Activity"}, "MOLT-4": {"tested_on": "MOLT-4", "test": "Cytotoxicity against human MOLT4 cells assessed as cell growth at 100 uM incubated for 48 hrs by sulforhodamine B assay relative to control", "conditions": "MOLT-4, 48 h, read-out: Activity"}, "EKVX": {"tested_on": "EKVX", "test": "Cytotoxicity against human EKVX cells assessed as cell growth at 0.1 uM incubated for 48 hrs by sulforhodamine B assay relative to control", "conditions": "read-out: Activity"}, "K562": {"tested_on": "K562", "test": "Cytotoxicity against human K562 cells assessed as cell growth at 0.1 uM incubated for 48 hrs by sulforhodamine B assay relative to control", "conditions": "K562, 48 h, read-out: Activity"}, "PC-3": {"tested_on": "PC-3", "test": "Cytotoxicity against human PC3 cells assessed as cell growth at 100 uM incubated for 48 hrs by sulforhodamine B assay relative to control", "conditions": "PC-3, 48 h, read-out: Activity"}, "HCC 2998": {"tested_on": "HCC 2998", "test": "Cytotoxicity against human HCC2998 cells incubated for 48 hrs by sulforhodamine B assay", "conditions": "HCC 2998, 48 h"}, "MDA-MB-435": {"tested_on": "MDA-MB-435", "test": "Cytotoxicity against human MDA-MB-435 cells assessed as cell growth at 1 uM incubated for 48 hrs by sulforhodamine B assay relative to control", "conditions": "MDA-MB-435, 48 h, read-out: Activity"}, "NCI-H522": {"tested_on": "NCI-H522", "test": "Cytotoxicity against human NCI-H522 cells assessed as cell growth at 10 uM incubated for 48 hrs by sulforhodamine B assay relative to control", "conditions": "NCI-H522, 48 h, read-out: Activity"}, "SK-MEL-5": {"tested_on": "SK-MEL-5", "test": "Cytotoxicity against human SK-MEL-5 cells assessed as cell growth at 10 uM incubated for 48 hrs by sulforhodamine B assay relative to control", "conditions": "SK-MEL-5, 48 h, read-out: Activity"}, "BT-549": {"tested_on": "BT-549", "test": "Cytotoxicity against human BT549 cells assessed as cell growth at 0.01 uM incubated for 48 hrs by sulforhodamine B assay relative to control", "conditions": "BT-549, 48 h, read-out: Activity"}, "SNB-19": {"tested_on": "SNB-19", "test": "Cytotoxicity against human SNB19 cells assessed as cell growth at 100 uM incubated for 48 hrs by sulforhodamine B assay relative to control", "conditions": "SNB-19, 48 h, read-out: Activity"}, "T47D": {"tested_on": "T47D", "test": "Cytotoxicity against human T47D cells assessed as cell growth at 10 uM incubated for 48 hrs by sulforhodamine B assay relative to control", "conditions": "read-out: Activity"}, "UO-31 [4]": {"tested_on": "UO-31", "test": "Cytotoxicity against human UO31 cells assessed as cell growth at 10 uM incubated for 48 hrs by sulforhodamine B assay relative to control", "conditions": "UO-31, 48 h, read-out: Activity"}, "SN12C": {"tested_on": "SN12C", "test": "Cytotoxicity against human SN12C cells assessed as cell growth at 0.01 uM incubated for 48 hrs by sulforhodamine B assay relative to control", "conditions": "read-out: Activity"}, "CAKI-1": {"tested_on": "CAKI-1", "test": "Cytotoxicity against human Caki1 cells assessed as cell growth at 100 uM incubated for 48 hrs by sulforhodamine B assay relative to control", "conditions": "CAKI-1, 48 h, read-out: Activity"}, "UACC-62": {"tested_on": "UACC-62", "test": "Cytotoxicity against human UACC62 cells assessed as cell growth at 0.1 uM incubated for 48 hrs by sulforhodamine B assay relative to control", "conditions": "UACC-62, 48 h, read-out: Activity"}, "MDA-MB-231": {"tested_on": "MDA-MB-231", "test": "Cytotoxicity against human MDA-MB-231 cells assessed as cell growth at 100 uM incubated for 48 hrs by sulforhodamine B assay relative to control", "conditions": "MDA-MB-231, 48 h, read-out: Activity"}, "Hs-578T": {"tested_on": "Hs-578T", "test": "Cytotoxicity against human Hs 578T cells assessed as cell growth at 0.01 uM incubated for 48 hrs by sulforhodamine B assay relative to control", "conditions": "read-out: Activity"}, "HL-60(TB) [5]": {"tested_on": "HL-60(TB)", "test": "Cytotoxicity against human HL-60(TB) cells assessed as cell growth at 0.01 uM incubated for 48 hrs by sulforhodamine B assay relative to control", "conditions": "HL-60, 48 h, read-out: Activity"}, "HCT-116": {"tested_on": "HCT-116", "test": "Cytotoxicity against human HCT116 cells assessed as cell growth at 1 uM incubated for 48 hrs by sulforhodamine B assay relative to control", "conditions": "HCT-116, 48 h, read-out: Activity"}, "MDA-MB-468": {"tested_on": "MDA-MB-468", "test": "Cytotoxicity against human MDA-MB-468 cells assessed as cell growth at 100 uM incubated for 48 hrs by sulforhodamine B assay relative to control", "conditions": "MDA-MB-468, 48 h, read-out: Activity"}, "NCI-H460": {"tested_on": "NCI-H460", "test": "Cytotoxicity against human NCI-H460 cells assessed as cell growth at 0.1 uM incubated for 48 hrs by sulforhodamine B assay relative to control", "conditions": "NCI-H460, 48 h, read-out: Activity"}, "IGROV-1": {"tested_on": "IGROV-1", "test": "Cytotoxicity against human IGROV1 cells assessed as cell growth at 0.1 uM incubated for 48 hrs by sulforhodamine B assay relative to control", "conditions": "IGROV-1, 48 h, read-out: Activity"}, "SF-539": {"tested_on": "SF-539", "test": "Cytotoxicity against human SF539 cells assessed as cell growth at 10 uM incubated for 48 hrs by sulforhodamine B assay relative to control", "conditions": "SF-539, 48 h, read-out: Activity"}, "HOP-62": {"tested_on": "HOP-62", "test": "Cytotoxicity against human HOP62 cells incubated for 48 hrs by sulforhodamine B assay", "conditions": "HOP-62, 48 h"}, "RPMI-8226": {"tested_on": "RPMI-8226", "test": "Cytotoxicity against human RPMI8226 cells incubated for 48 hrs by sulforhodamine B assay", "conditions": "RPMI-8226, 48 h"}, "SK-MEL-2": {"tested_on": "SK-MEL-2", "test": "Cytotoxicity against human SK-MEL-2 cells assessed as cell growth at 0.01 uM incubated for 48 hrs by sulforhodamine B assay relative to control", "conditions": "SK-MEL-2, 48 h, read-out: Activity"}, "HL-60(TB) [6]": {"tested_on": "HL-60(TB)", "test": "Cytotoxicity against human HL-60(TB) cells assessed as cell growth at 10 uM incubated for 48 hrs by sulforhodamine B assay relative to control", "conditions": "HL-60, 48 h, read-out: Activity"}, "[7]": {"conditions": "read-out: LC50 (the source's name)"}, "[8]": {"conditions": "read-out: pLC50 (the source's name) (converted)"}}}
{"smiles": "COc1ccc(-c2nocc2-c2cc(OC)c(OC)c(OC)c2)cc1", "values": [{"measurement": "growth at 1 µM", "setting": "SF-268 [1]", "value": 45, "unit": "%"}, {"measurement": "growth at 1 µM", "setting": "ACHN", "value": 52, "unit": "%"}, {"measurement": "growth at 0.1 µM", "setting": "A549", "value": 47, "unit": "%"}, {"measurement": "growth at 0.01 µM", "setting": "UO-31 [2]", "value": 90, "unit": "%"}, {"measurement": "growth at 10 µM", "setting": "SF-268 [3]", "value": 27, "unit": "%"}, {"measurement": "growth at 100 µM", "setting": "MOLT-4", "value": 5, "unit": "%"}, {"measurement": "growth at 0.1 µM", "setting": "EKVX", "value": 49, "unit": "%"}, {"measurement": "growth at 0.1 µM", "setting": "K562", "value": 24, "unit": "%"}, {"measurement": "growth at 100 µM", "setting": "PC-3", "value": -13, "unit": "%"}, {"measurement": "GI50", "setting": "HCC 2998; read-out: GI50", "value": 0.347, "unit": "µM"}, {"measurement": "CC50", "setting": "HCC 2998; [7]", "value": "> 100", "unit": "µM"}, {"measurement": "TGI", "setting": "HCC 2998; read-out: TGI", "value": 22.2, "unit": "µM"}, {"measurement": "GI50", "setting": "HCC 2998; read-out: pGI50 (converted)", "value": 0.347, "unit": "µM"}, {"measurement": "CC50", "setting": "HCC 2998; [8]", "value": "> 100", "unit": "µM"}, {"measurement": "TGI", "setting": "HCC 2998; read-out: pTGI (converted)", "value": 22.4, "unit": "µM"}, {"measurement": "growth at 1 µM", "setting": "MDA-MB-435", "value": -25, "unit": "%"}, {"measurement": "growth at 10 µM", "setting": "NCI-H522", "value": -6, "unit": "%"}, {"measurement": "growth at 10 µM", "setting": "SK-MEL-5", "value": -11, "unit": "%"}, {"measurement": "growth at 0.01 µM", "setting": "BT-549", "value": 86, "unit": "%"}, {"measurement": "growth at 100 µM", "setting": "SNB-19", "value": 8, "unit": "%"}, {"measurement": "growth at 10 µM", "setting": "T47D", "value": 52, "unit": "%"}, {"measurement": "growth at 10 µM", "setting": "UO-31 [4]", "value": 23, "unit": "%"}, {"measurement": "growth at 0.01 µM", "setting": "SN12C", "value": 107, "unit": "%"}, {"measurement": "growth at 100 µM", "setting": "CAKI-1", "value": 14, "unit": "%"}, {"measurement": "growth at 0.1 µM", "setting": "UACC-62", "value": 36, "unit": "%"}, {"measurement": "growth at 100 µM", "setting": "MDA-MB-231", "value": -15, "unit": "%"}, {"measurement": "growth at 0.01 µM", "setting": "Hs-578T", "value": 92, "unit": "%"}, {"measurement": "growth at 0.01 µM", "setting": "HL-60(TB) [5]", "value": 105, "unit": "%"}, {"measurement": "growth at 1 µM", "setting": "HCT-116", "value": 14, "unit": "%"}, {"measurement": "growth at 100 µM", "setting": "MDA-MB-468", "value": -19, "unit": "%"}, {"measurement": "growth at 0.1 µM", "setting": "NCI-H460", "value": 30, "unit": "%"}, {"measurement": "growth at 0.1 µM", "setting": "IGROV-1", "value": 54, "unit": "%"}, {"measurement": "growth at 10 µM", "setting": "SF-539", "value": 2, "unit": "%"}, {"measurement": "GI50", "setting": "HOP-62; read-out: GI50", "value": 0.259, "unit": "µM"}, {"measurement": "LC50", "setting": "HOP-62; read-out: LC50", "value": "> 100", "unit": "µM"}, {"measurement": "TGI", "setting": "HOP-62; read-out: TGI", "value": "> 100", "unit": "µM"}, {"measurement": "GI50", "setting": "HOP-62; read-out: pGI50 (converted)", "value": 0.257, "unit": "µM"}, {"measurement": "LC50", "setting": "HOP-62; read-out: pLC50 (converted)", "value": "> 100", "unit": "µM"}, {"measurement": "TGI", "setting": "HOP-62; read-out: pTGI", "value": "> 100", "unit": "µM"}, {"measurement": "GI50", "setting": "RPMI-8226; read-out: GI50", "value": 0.44, "unit": "µM"}, {"measurement": "CC50", "setting": "RPMI-8226; [7]", "value": "> 100", "unit": "µM"}, {"measurement": "TGI", "setting": "RPMI-8226; read-out: TGI", "value": 30.5, "unit": "µM"}, {"measurement": "GI50", "setting": "RPMI-8226; read-out: pGI50 (converted)", "value": 0.437, "unit": "µM"}, {"measurement": "CC50", "setting": "RPMI-8226; [8]", "value": "> 100", "unit": "µM"}, {"measurement": "TGI", "setting": "RPMI-8226; read-out: pTGI (converted)", "value": 30.2, "unit": "µM"}, {"measurement": "growth at 0.01 µM", "setting": "SK-MEL-2", "value": 99, "unit": "%"}, {"measurement": "growth at 10 µM", "setting": "HL-60(TB) [6]", "value": -8, "unit": "%"}]}
